The values that follow come from ChEMBL document CHEMBL4387706, “Discovery of Novel Spiroindoline Derivatives as Selective Tankyrase Inhibitors” (J Med Chem, 2019).

Converted amounts (≈) assume the structure as drawn. The source made the active and inactive calls. The calls are words filed in the database; no cut-off is given here.

A short description of series [1]: AUC (infinity) in Sprague-Dawley rat at 1 mg/kg, iv. In kind it is ADME, organism-based. Also on record: dose 1 mg/kg, route intravenous, time infinity. The note with it: in vivo.
Series [2] is described as follows: Initial plasma concentration in Sprague-Dawley rat at 1 mg/kg, iv. In kind it is ADME, organism-based.
The species named for series [3] is Homo sapiens. The series can be described thus: Effect on hippo signaling protein in human COLO320DM cells assessed as change in CYR61 expression at 0.1 to 1 uM measured after 48 hrs by RT-PCR analysis. The class given is cell-based.
The next series is described as follows: physchem. The conditions noted are these: phosphate buffer, pH 7.4.
The nature of series [4]: Oral bioavailability in Sprague-Dawley rat at 3 mg/kg. The class given is ADME, organism-based. The note with it: in vivo.
Series [5] in a line: Cmax in Sprague-Dawley rat at 3 mg/kg, po. Further details: dose 3 mg/kg, route oral. The conditions noted are these: in vivo. The class given is ADME, organism-based.
The target in series [6] is Poly [ADP-ribose] polymerase 1 (Homo sapiens, UniProt P09874).
Description: Inhibition of recombinant human PARP1 expressed in Escherichia coli assessed as reduction in auto-PARylation using histone as substrate measured after 45 mins in presence of biotinylated-NAD+ by ELISA
A short description of series [7]: Total clearance in Sprague-Dawley rat at 1 mg/kg, iv. The class given is ADME, organism-based. The conditions noted are these: in vivo.
Series [8] can be described thus: Protein binding in mouse serum assessed as unbound fraction at 1 uM measured after 24 hrs by LC-MS/MS analysis. The class given is ADME, cell-free.
Series [9] in a line: Volume of distribution at steady state in Sprague-Dawley rat at 1 mg/kg, iv. The conditions noted are these: in vivo, read-out: Vdss. In kind it is ADME, organism-based.
Series [10] is described as follows: Toxicity in mouse xenografted with human COLO320DM cells assessed as body weight loss at 40 mg/kg, ip administered twice daily for 11 days. The class given is organism-based. The conditions noted are these: in vivo, 264 h. (Xenograft models place foreign cells or tissue in a host animal.)
For series [11], the species on record is Homo sapiens. The series can be described thus: Effect on hippo signaling protein in human COLO320DM cells assessed as change in AMOTL2 expression at 0.1 to 1 uM measured after 48 hrs by RT-PCR analysis. The class given is cell-based.
Series [12] deals with Poly [ADP-ribose] polymerase 2 (Homo sapiens, UniProt Q9UGN5). The series can be described thus: Inhibition of human recombinant N-terminal GST-tagged PARP2 (2 to 583 residues) expressed in baculovirus infected Sf9 cells assessed as reduction in auto-PARylation using histone as substrate measured after 45 mins in presence of biotinylated-NAD+ by ELISA. Background: An ELISA detects its analyte on a solid surface through an enzyme-linked reagent.

Series [13] in a line: in vitro. The conditions noted are these: human, liver microsomes. In general terms: Liver microsomes are a subcellular fraction often used to study metabolism.
Description: Stability in human liver microsomes assessed as parent compound remaining at 1 uM measured after 30 mins in presence of NADPH by LC-MS/MS analysis
The species named for series [14] is Homo sapiens. The series is described as follows: Effect on hippo signaling protein in human COLO320DM cells assessed as change in CTGF expression at 0.1 to 1 uM measured after 48 hrs by RT-PCR analysis. The class given is cell-based.
A short description of series [15]: AUC (infinity) in Sprague-Dawley rat at 3 mg/kg, po. In kind it is ADME, organism-based. Further details: dose 3 mg/kg, time infinity, route oral. The conditions noted are these: in vivo.
A short description of series [16]: Protein binding in human serum assessed as unbound fraction at 1 uM measured after 24 hrs by LC-MS/MS analysis. The class given is ADME, cell-free.
Series [17] in a line: Permeability of the compound by PAMPA. The class given is ADME. The conditions noted are these: read-out: permeability.
For series [18], the target named is T1, Protein mono-ADP-ribosyltransferase PARP10 (Homo sapiens, UniProt Q53GL7).
T1 sequence (Q53GL7 whole entry): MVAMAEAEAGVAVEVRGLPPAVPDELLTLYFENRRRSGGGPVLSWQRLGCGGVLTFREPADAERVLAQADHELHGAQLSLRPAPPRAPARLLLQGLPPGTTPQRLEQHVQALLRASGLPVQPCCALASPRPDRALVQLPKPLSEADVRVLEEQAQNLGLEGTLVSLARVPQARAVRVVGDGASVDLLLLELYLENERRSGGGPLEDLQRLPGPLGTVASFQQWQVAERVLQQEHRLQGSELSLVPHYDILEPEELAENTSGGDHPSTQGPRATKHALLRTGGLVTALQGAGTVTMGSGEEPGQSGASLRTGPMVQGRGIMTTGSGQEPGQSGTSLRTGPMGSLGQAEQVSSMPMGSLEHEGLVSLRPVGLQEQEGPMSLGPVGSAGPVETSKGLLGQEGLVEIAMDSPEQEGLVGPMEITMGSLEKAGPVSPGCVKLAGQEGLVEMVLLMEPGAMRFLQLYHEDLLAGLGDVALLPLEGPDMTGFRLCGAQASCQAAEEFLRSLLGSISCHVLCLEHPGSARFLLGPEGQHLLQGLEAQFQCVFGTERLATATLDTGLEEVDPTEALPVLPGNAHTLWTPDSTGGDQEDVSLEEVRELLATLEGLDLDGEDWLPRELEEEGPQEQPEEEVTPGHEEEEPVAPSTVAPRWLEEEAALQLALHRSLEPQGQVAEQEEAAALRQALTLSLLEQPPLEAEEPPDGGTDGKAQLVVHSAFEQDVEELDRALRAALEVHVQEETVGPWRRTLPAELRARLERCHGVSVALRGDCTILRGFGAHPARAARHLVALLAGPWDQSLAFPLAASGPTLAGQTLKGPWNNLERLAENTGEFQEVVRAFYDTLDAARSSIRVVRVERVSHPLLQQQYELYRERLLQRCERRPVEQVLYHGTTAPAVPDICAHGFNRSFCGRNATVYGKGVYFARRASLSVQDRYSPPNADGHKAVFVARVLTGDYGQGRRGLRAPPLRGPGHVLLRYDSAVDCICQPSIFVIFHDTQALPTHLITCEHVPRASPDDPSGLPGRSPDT
The series is described as follows: Inhibition of human recombinant N-terminal TEV-cleavgae site-fused-FLAG/Polyhis-tagged PARP10 […] expressed in Escherichia coli assessed as reduction in auto-PARylation using histone as substrate measured after 45 mins in presence of biotinylated-NAD+ by ELISA.

Series [19] in a line: Half life in Sprague-Dawley rat at 1 mg/kg, iv. The note with it: in vivo. The class given is ADME, organism-based.
A short description of series [20]: Tmax in Sprague-Dawley rat at 3 mg/kg, po. In kind it is ADME, organism-based. The note with it: in vivo.
For a further series, the system named is COLO 320DM. The series is described as follows: Antitumor activity against human COLO320DM cells xenografted in mouse assessed as tumor growth inhibition at 40 mg/kg, ip administered twice daily for 11 days relative to control. The class given is functional. The conditions noted are these: 264 h, read-out: TGI.
Series [21] can be described thus: in vitro. The conditions noted are these: mouse, liver microsomes.
Description: Stability in mouse liver microsomes assessed as parent compound remaining at 1 uM measured after 30 mins in presence of NADPH by LC-MS/MS analysis

Poly [ADP-ribose] polymerase 1, sequence (P09874 whole entry): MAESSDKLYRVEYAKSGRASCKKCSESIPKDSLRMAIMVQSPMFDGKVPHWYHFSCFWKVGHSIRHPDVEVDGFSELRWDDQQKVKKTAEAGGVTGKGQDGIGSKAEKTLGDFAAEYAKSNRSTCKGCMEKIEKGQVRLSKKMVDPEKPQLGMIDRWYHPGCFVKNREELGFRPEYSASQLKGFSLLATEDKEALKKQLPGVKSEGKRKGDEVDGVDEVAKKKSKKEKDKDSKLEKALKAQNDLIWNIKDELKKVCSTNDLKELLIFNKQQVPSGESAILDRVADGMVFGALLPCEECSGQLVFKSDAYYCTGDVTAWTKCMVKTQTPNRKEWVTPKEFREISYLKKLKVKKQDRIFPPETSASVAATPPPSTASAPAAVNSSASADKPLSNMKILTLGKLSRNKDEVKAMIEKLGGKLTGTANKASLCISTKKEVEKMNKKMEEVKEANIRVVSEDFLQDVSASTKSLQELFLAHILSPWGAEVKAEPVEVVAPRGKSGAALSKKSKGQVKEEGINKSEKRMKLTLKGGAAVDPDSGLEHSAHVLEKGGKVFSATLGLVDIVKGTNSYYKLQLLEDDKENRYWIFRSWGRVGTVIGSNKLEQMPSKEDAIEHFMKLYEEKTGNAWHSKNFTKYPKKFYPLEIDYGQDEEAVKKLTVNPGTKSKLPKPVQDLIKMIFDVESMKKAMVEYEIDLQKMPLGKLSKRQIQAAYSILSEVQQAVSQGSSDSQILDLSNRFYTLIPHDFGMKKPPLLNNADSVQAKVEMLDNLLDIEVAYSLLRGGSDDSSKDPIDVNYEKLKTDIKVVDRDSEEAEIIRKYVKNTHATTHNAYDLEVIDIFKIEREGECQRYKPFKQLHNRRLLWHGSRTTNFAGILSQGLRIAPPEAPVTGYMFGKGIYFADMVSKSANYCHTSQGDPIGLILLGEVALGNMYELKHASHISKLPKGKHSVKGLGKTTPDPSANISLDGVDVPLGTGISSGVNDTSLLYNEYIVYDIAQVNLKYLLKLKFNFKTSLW
Poly [ADP-ribose] polymerase 2, sequence (Q9UGN5 whole entry, the tested form may be a part): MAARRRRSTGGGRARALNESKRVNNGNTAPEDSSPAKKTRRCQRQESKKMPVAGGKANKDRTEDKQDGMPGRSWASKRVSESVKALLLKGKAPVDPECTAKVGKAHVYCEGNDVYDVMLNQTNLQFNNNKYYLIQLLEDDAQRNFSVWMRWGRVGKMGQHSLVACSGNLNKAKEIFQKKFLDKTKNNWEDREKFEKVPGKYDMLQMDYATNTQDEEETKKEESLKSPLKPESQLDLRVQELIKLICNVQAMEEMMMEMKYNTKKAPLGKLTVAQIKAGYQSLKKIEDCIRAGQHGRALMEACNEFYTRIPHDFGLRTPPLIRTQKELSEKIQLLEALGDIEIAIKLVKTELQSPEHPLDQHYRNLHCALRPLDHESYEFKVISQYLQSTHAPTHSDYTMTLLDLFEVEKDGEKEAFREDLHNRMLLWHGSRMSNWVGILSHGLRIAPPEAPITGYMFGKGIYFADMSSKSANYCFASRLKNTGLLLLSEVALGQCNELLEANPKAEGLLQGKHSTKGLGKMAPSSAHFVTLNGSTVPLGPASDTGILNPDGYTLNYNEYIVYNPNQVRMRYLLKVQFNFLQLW

As to `CS(=O)(=O)c1ccc(-c2nnc(/C=C/c3nnc(-c4ccc(C#N)cc4)o3)n2-c2ccccc2Cl)nc1`, the AUC(0-inf) (as a rule, the area under the concentration-time curve extrapolated to infinity) in series [1] was determined as 0.79 µM·h; in [15] it was 2.33 µM·h. The C0 in series [2] worked out at 1540 nM. The result in the series filed under Homo sapiens [3], in the series listed under Homo sapiens [11] and in the series listed under Homo sapiens [14] was inactive. In “physchem”, the solubility (as a rule, the concentration that dissolves in the medium under given conditions) at 1 h, 200 µM amounted to 1.5 µg/mL (≈ 2.83 µM). Further, the bioavailability (as a rule, dose-corrected exposure relative to a reference, in per cent) in [4] is 97.8%. Further, the concentration in [5] peaked (Cmax) at 230 nM. The 50% inhibitory concentration (IC50) in [6], in series [12] and in series [18] was over 100 µM each time. Also, the clearance (as a rule, a measure of how efficiently the substance is removed, as volume per time) in series [7] is 39.7 mL/min/kg. The fraction unbound (as a rule, the share of the substance not bound to proteins or other matrix) at 24 h, 1 µM was found to be 0.035 in series [8] and 0.028 in series [16]. Besides, in series [9], the Vd was 1.79 L/kg. The Activity result in [10] was “Toxic”. For the same compound, the fraction remaining (commonly what is left of the initial amount, in per cent) at 0.5 h, 1 µM came out at 100% in “in vitro [13]” and 95.8% in “in vitro [21]”. In [17], the Papp was found to be 11.4 ×10⁻⁶ cm/s. For the same compound, the half-life (as a rule, the time in which the quantity being followed falls by half) in [19] is 3.3 h. The time to peak (Tmax) (as a rule, the time at which the peak concentration occurs) in [20] came to 4 h. Moreover, the inhibition in vivo at 40 mg/kg in the series with COLO 320DM was 48%.
